Measured values from patent US4024252A, “2-(5-Ethyl-6-bromothiazolo[3,2-b]-5-triazolyl)thiophosphonate esters, compositions and method of use” (priority 1973, dated 1977).
Converted amounts (≈) assume the structure as drawn. Where two headings read alike, the source gives them in different places.

Legend:
[1] = Toxicity Test 2, medium tolerated limit in carp; format: in vivo, Cyprinus carpio; details: water
Experimental: The test compound was dissolved in dimethylformamide and said solution was added to 20 liters of water containing 10 carps (Cyprinus carpio) in a fixed concentration.
Dead fish within 48 hours from the addition of test compounds was counted.
The results were shown in Table 8 as medium tolerated limit (TLm).
*TLm is the concentration of test compound which half the number of fish

[2] = test system: Cabbage armyworm (Leucania separate Walker); assay: Test 2 Insecticidal Activity against Cabbage armyworm; format: in vivo
Experimental: 10 Multigeneration bred armyworms (Leucania separate Walker) were used for one experimental zone.
[…] Then the leaf was set an filter paper having 9 cm diameter in a schale. The test insects were inoculated into the dish and the cover was put on it. After 1 day and 3 days from inoculation, dead insects were counted and mortality (%) were calculated. The results were shown in

[3] = test system: house flies (Musca domestica Linne); assay: Test 1 Insecticidal Activity against Fly; format: in vivo; details: topical; for mortality at 0.25 µg/fly: 0.25γ/a fly; for mortality at 0.5 µg/fly: 0.5γ/a fly
Experimental: Fixed concentration of acetone solution containing test compound were prepared.
20 pieces of female adults of house flies (Musca domestica Linne) were tested with 1 μl of acetone solution at their thoracie dorsal by microcylinge and kept at a temperature of 25° C and at a humidity of 65%. 24 hours and 48 hours after treatment, dead flies were counted and mortality (%) was calculated.

[4] = test system: desert spider mite (Tetranychus desertorum Banks); assay: Test 3 Test for Control of Mite; format: in vivo; details: 72 h, read-out: Rating of mortality
Experimental: About 30 adult female mites of desert spider mite (Tetranychus desertorum Banks) laid on main leaves of the potted kidney bean plants grown 7 to 10 days stage after aprouting. One day later, the wounded mites were removed from the plants. The compounds to be tested were sprayed on the plants as water suspension of emulsifiable concentrate prepared by the method of Example 6. After 1 day and 3 days from spraying, dead mites were counted and mortality (%) was calculated.

[5] = test system: Rice stem borer (Chilo suppressalis Walker); assay: Test 4 Insecticidal Activity against Rice stem borer; format: in vivo; details: 168 h, a week after spraying
Experimental: 20 hatched nymph of Rice stem borer (Chilo suppressalis Walker) were inoculated to the potted rice (height: 30 - 40 cm, number: 4/pot). A week after inoculation, 30 ml of fixed concentration of solution containing test compound were sprayed on the rice in which hatched nymph were inhabiting and the pots were kept at the room temperature. A week after spraying, the rice was opened, dead Rice stem borers were counted and mortality (%) was calculated.

[6] = test system: tobacco cutworms (Prodenia litura Fabricius); assay: Test 5 Test for Control of Tobacco cutworm; format: in vivo; details: 72 h, 3 days; for mortality at 31.3 ppm: 31.3 p.p.m.; for mortality at 62.5 ppm: 62.5 p.p.m.; for mortality at 125 ppm: 125 p.p.m.
Experimental: Then the leaf and 5 tobacco cutworms (Prodenia litura Fabricius) of 3 stages larva were put into a covered dish.
The test was carried out twice. After 3 days from inoculation, dead insects were counted and mortality (%) was calculated.

[7] = test system: northern house mosquito (Culex pipiens molestus Forskal); assay: Test 6 Insecticidal Activity against Mosquito; format: in vivo; details: 24 hours after inoculation, aqueous suspension of wettable powder
Experimental: An aqueous suspension of formulated wettable powder were poured in 200 ml beaker and in which 20 northern house mosquito (Culex pipiens molestus Forskal) were inoculated.

[8] = Toxicity Test 1, acute oral toxicity; details: in vivo, mouse; for LD50: oral; for LD50 at 336 h: po, mice, stomach tube, 25% aqueous gum arabic, 2 weeks (Table 7)
Source text: Suspension of the test compound in 25% aqueous solution of gum arabic was compulsorily treated to six mice by means of a stomack tube and inspection had been made for 2 weeks.

[9] = 48 hours (Table 8), read-out: TLm (medium tolerated limit)
[10] = 48 hrs, read-out: medium tolerance limit (48 hrs) for carp

CCc1c(Br)sc2nc(OP(=S)(OC)OC)nn12 [drawing 15]
LC50 at 48 h [1, 9]: > 5 µg/mL

CCc1c(Br)sc2nc(OP(=S)(OC(C)C)OC(C)C)nn12 [Example 3, O,O-diisopropyl 2-(5-ethyl-6-bromothiazolo[3,2-b]-s-triazolyl)thionophosphate]
mortality at 15.7 ppm ([2]; 24 h): 60%
mortality at 7.8 ppm ([2]; 24 h, 1 day): 50%
mortality at 31.3 ppm ([2]; 24 h, 1 day): 100%
mortality at 15.7 ppm ([2]; 72 h): 100%
mortality at 7.8 ppm ([2]; 72 h, 3 days): 90%
mortality at 31.3 ppm ([2]; 72 h, 3 days): 100%

CCOP(=S)(OCC)Oc1nc2scc(C)n2n1 [Comparison compound, O,O-diethyl-2-(5-methylthiazolo[3,2-b]-s-triazolyl)thionophosphate, reference compound]
mortality at 0.25 µg/fly ([3]; 24 hrs.): 0%
mortality at 0.25 µg/fly ([3]; 48 hrs.): 10%
mortality at 0.5 µg/fly ([3]; 24 hrs.): 70%
mortality at 0.5 µg/fly ([3]; 48 hrs.): 70%
mortality at 15.7 ppm ([2]; 24 h): 30%
mortality at 7.8 ppm ([2]; 24 h, 1 day): 0%
mortality at 31.3 ppm ([2]; 24 h, 1 day): 70%
mortality at 15.7 ppm ([2]; 72 h): 80%
mortality at 7.8 ppm ([2]; 72 h, 3 days): 0%
mortality at 31.3 ppm ([2]; 72 h, 3 days): 100%
mortality at 500 ppm [4]: 100%
mortality at 15.6 ppm ([5]; 15.6 ppm): 84%
mortality at 31.3 ppm [5]: 100%
mortality at 31.3 ppm [6]: 0%
mortality at 62.5 ppm [6]: 80%
mortality at 125 ppm [6]: 100%
LC50 [7]: 0.04 µg/mL (≈ 0.13 µM)
LD50 [8]: 33 to 50 mg/kg
LD50 at 336 h [8]: 33 to 50 mg/kg
LC50 at 48 h [1, 9]: < 0.5 µg/mL

CCc1c(Br)sc2nc(OP(=S)(OC(C)C)OC(C)C)nn12 [drawing 16]
LC50 at 48 h [1, 9]: > 5 µg/mL

CCc1c(Br)sc2nc(OP(=S)(OC)OC)nn12 [Example 1, O,O-Dimethyl 2-(5-ethyl-6-bromothiazolo[3,2-b]s-triazolyl) thionophosphate]
mortality at 15.7 ppm ([2]; 24 h): 60%
mortality at 7.8 ppm ([2]; 24 h, 1 day): 50%
mortality at 31.3 ppm ([2]; 24 h, 1 day): 100%
mortality at 15.7 ppm ([2]; 72 h): 100%
mortality at 7.8 ppm ([2]; 72 h, 3 days): 90%
mortality at 31.3 ppm ([2]; 72 h, 3 days): 100%
mortality at 500 ppm [4]: 100%

CCc1c(Br)sc2nc(OP(=S)(OC(C)C)OC(C)C)nn12 [drawing 12]
LD50 at 336 h [8]: > 200 mg/kg

CCOP(=S)(OCC)Oc1nc2sc(Br)c(CC)n2n1 [Example 2, O,O-Diethyl 2-(5-ethyl-6-bromothiazolo[3,2-b]-s-triazolyl) thionophosphate]
mortality at 0.25 µg/fly ([3]; 24 hrs.): 30%
mortality at 0.25 µg/fly ([3]; 48 hrs.): 40%
mortality at 0.5 µg/fly ([3]; 24 hrs.): 100%
mortality at 0.5 µg/fly ([3]; 48 hrs.): 100%
mortality at 15.7 ppm ([2]; 24 h): 90%
mortality at 7.8 ppm ([2]; 24 h, 1 day): 60%
mortality at 31.3 ppm ([2]; 24 h, 1 day): 100%
mortality at 15.7 ppm ([2]; 72 h): 100%
mortality at 7.8 ppm ([2]; 72 h, 3 days): 100%
mortality at 31.3 ppm ([2]; 72 h, 3 days): 100%
mortality at 500 ppm [4]: 100%
mortality at 7.8 ppm ([5]; 7.8 ppm): 91%
mortality at 31.3 ppm [5]: 100%
mortality at 15.6 ppm ([6]; 15.6 p.p.m.): 60%
mortality at 31.3 ppm [6]: 80%
mortality at 62.5 ppm [6]: 100%
mortality at 125 ppm [6]: 100%
LC50 [7]: 0.003 µg/mL (≈ 0.0075 µM)
LD50 [8]: 280 mg/kg
LD50 at 336 h [8]: 280 mg/kg
LC50 at 48 h [1, 10]: 18.5 µg/mL

CCc1c(Br)sc2nc(OP(=S)(OC)OC)nn12 [drawing 11]
LD50 at 336 h [8]: > 200 mg/kg

CCOP(=S)(OCC)Oc1nc2sc(Br)c(C)n2n1 [O,O-diethyl-2-(5-methyl-6-bromothiazolo[3,2-b]-s-triazolyl)thionophosphate, reference compound]
LD50 [8]: 150 mg/kg
LC50 at 48 h [1, 10]: < 0.05 µg/mL
